Assay results from ChEMBL document CHEMBL3272349, “Quantitative structure-activity relationships of antimalarial and dihydrofolate reductase inhibition by quinazolines and 5-substituted benzyl-2,4-diaminopyrimidines” (J Med Chem, 1977).

Key:
[1] = molecular target: T1, Dihydrofolate reductase (Escherichia coli) (UniProt P0ABQ4)
T1 sequence (whole entry): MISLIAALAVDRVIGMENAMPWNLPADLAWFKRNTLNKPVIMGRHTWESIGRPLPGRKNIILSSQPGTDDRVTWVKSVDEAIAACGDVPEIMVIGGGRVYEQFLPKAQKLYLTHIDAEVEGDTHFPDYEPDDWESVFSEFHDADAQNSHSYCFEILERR
Description: Inhibition of Escherichia coli dihydrofolate reductase

[2] = molecular target: T2, Dihydrofolate reductase (Rattus norvegicus) (UniProt Q920D2)
T2 sequence (whole entry): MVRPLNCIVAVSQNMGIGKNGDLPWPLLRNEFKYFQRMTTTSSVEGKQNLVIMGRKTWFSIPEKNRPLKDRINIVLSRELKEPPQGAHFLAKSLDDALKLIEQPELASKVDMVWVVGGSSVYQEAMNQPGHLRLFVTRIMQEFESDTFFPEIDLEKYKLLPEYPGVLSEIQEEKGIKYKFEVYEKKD
Description: Inhibition of rat liver dihydrofolate reductase

Plasmodium berghei [3] = test: Antimalarial activity against Plasmodium berghei infected in po dosed mouse assessed as suppression of parasitemia administered for 4 days; type: functional
Proteus vulgaris = test: Inhibition of Proteus vulgaris dihydrofolate reductase
Plasmodium berghei [4] = test: Antimalarial activity against Plasmodium berghei infected in po dosed mouse assessed as suppression of parasitemia administered for 6 days; type: functional

Compound COc1ccc(Cc2cnc(N)nc2N)cc1 has a log(1/I50) [1] of 5.96.

In the case of COc1cccc(Cc2cnc(N)nc2N)c1, the log(1/I50) [1] was 6.31.

Nc1ncc(Cc2ccccc2)c(N)n1 showed a log(1/I50) [2] of 4.8.

COc1ccc(Cc2cnc(N)nc2N)cc1OC was tested, and the log(1/I50) [1] was 7.

With Nc1nc(N)c2cc(N(Cc3ccc(Cl)c(Cl)c3)N=O)ccc2n1 the “log(1/SD90)” value (Plasmodium berghei [3]) was 6.13.

With COc1cc(Cc2cnc(N)nc2N)cc(OC)c1OC the Activity (Proteus vulgaris) was 0.5 ×10⁻⁸ M.

Nc1ncc(Cc2ccc(Cl)cc2)c(N)n1 was tested, and the log(1/I50) [1] was 5.68.

With Nc1nc(N)c2cc(N3CCCC3c3ccccc3)ccc2n1 (centres undefined) the “log(1/SD90)” value (Plasmodium berghei [3]) was 5.94.

For Nc1nc(N)c2cc(N3CCC(c4ccccc4)CC3)ccc2n1, the “log(1/SD90)” value (Plasmodium berghei [3]) was 4.3.

CCCCc1ccc(N2C(N)=NC(N)=NC2(C)C)cc1 was tested, and the Activity (Proteus vulgaris) was 10000 ×10⁻⁸ M.

In the case of Nc1nc(N)c2cc(N3CCc4ccccc4C3)ccc2n1, the “log(1/SD90)” value (Plasmodium berghei [3]) was 4.8.

With Cc1ccc(C)n1-c1cc(-n2c(C)ccc2C)c2nc(N)nc(N)c2c1 the “log(1/SD90)” value (Plasmodium berghei [3]) was 4.34.

In the case of Nc1nc(N)c2cc(Oc3cc(Cl)cc(Cl)c3)ccc2n1, the “log(1/SD90)” value (Plasmodium berghei [4]) was 4.11.

For Nc1nc(N)c2cc(Oc3ccc4cc(Br)ccc4c3Br)ccc2n1, the “log(1/SD90)” value (Plasmodium berghei [4]) was 4.05.

Nc1nc(N)c2cc(OCc3ccccc3)ccc2n1 was tested, and the “log(1/SD90)” value (Plasmodium berghei [4]) was 3.18.

In the case of Nc1ncc(Cc2ccc(O)cc2)c(N)n1, the log(1/I50) [1] was 5.74.

Compound COc1cc(Cc2cnc(N)nc2N)cc(Cl)c1OC has a log(1/I50) [1] of 7.4.

In the case of Nc1nc(N)c2cc(NCc3ccc(Cl)c(Cl)c3)ccc2n1, the “log(1/SD90)” value (Plasmodium berghei [4]) was 4.59.

Cc1ccc(Cc2cnc(N)nc2N)cc1 showed a log(1/I50) [1] of 5.64.
